What was measured:
Italian ryegrass [1] = experiment: Test Example 4: herbicidal effect by soil treatment (Table 19, symbol K); format: in vivo, Italian ryegrass (Lolium multiflorum); details: amount of applied herbicide 320 g/ha
Summary of the method: (§1)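 Applied as a water-diluted emulsion, the compound was sprayed onto soil covering newly sown seeds. Evaluation came three weeks after application, in a greenhouse held at 25° C. to 30° C.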

blackgrass [2] = experiment: Test Example 5: herbicidal effect by foliage application, plastic box (Table 20, symbol J); format: in vivo, blackgrass (Alopecurus myosuroides); details: amount of applied herbicide 320 g/ha; foliage application after 14-day growth; evaluated three weeks after application
Summary of the method: (§2)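 Sow seeds spot-wise in sterilized diluvial soil; cover with ~1.5 cm soil. Grow 14 days in greenhouse, 25° C. to 30° C. Spray foliage with emulsion diluted to predetermined amount. Rate effect after 3 weeks.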

barnyard grass [3] = experiment: Test Example 3: herbicidal effect by foliage application, Wagner pot (Table 18, symbol H); format: in vivo, barnyard grass (Echinochloa crus-galli); details: 320 g/ha
Summary of the method: (§3)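 Plants were sown in alluvial soil held under 0.1–0.5 cm standing water and grown 14 days in a greenhouse at 25–30 °C. An emulsifiable formulation, water-diluted to the set dose, was then sprayed onto the foliage, and effects were scored three weeks later using previously defined criteria.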

windgrass [4] = experiment: Test Example 4: herbicidal effect by soil treatment (Table 19, symbol L); format: in vivo, windgrass (Apera spica-venti); details: amount of applied herbicide 320 g/ha
Summary of the method: as §1

blackgrass [5] = experiment: Test Example 4: herbicidal effect by soil treatment (Table 19, symbol J); format: in vivo, blackgrass (Alopecurus myosuroides); details: amount of applied herbicide 320 g/ha
Summary of the method: as §1

green foxtail [6] = experiment: Test Example 4: herbicidal effect by soil treatment (Table 19, symbol G); format: in vivo, green foxtail (Setaria viridis); details: amount of applied herbicide 320 g/ha
Summary of the method: as §1

oval-leafed pondweed = experiment: Test Example 1: herbicidal activity, application before weed generation under submerged conditions (Table 16, symbol C); format: in vivo, oval-leafed pondweed (Monochoria vaginalis); details: amount of applied herbicide 320 g/ha
Summary of the method: (§4)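 Emulsion formulation, water-diluted to set dose, was put onto the flooded surface (4 cm depth, alluvial soil) the same day weeds were sown and 2.5-leaf rice transplanted. After 3 weeks at 25-30 °C under glass, each species was rated 0 (≤5% kill) to 5 (≥90% kill).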

windgrass [7] = experiment: Test Example 5: herbicidal effect by foliage application, plastic box (Table 20, symbol L); format: in vivo, windgrass (Apera spica-venti); details: amount of applied herbicide 320 g/ha; foliage application after 14-day growth; evaluated three weeks after application
Summary of the method: as §2

wild oat [8] = experiment: Test Example 4: herbicidal effect by soil treatment (Table 19, symbol I); format: in vivo, wild oat (Avena fatua); details: amount of applied herbicide 320 g/ha
Summary of the method: as §1

chickweed [9] = experiment: Test Example 4: herbicidal effect by soil treatment (Table 19, symbol P); format: in vivo, common chickweed (Stellaria media); details: amount of applied herbicide 320 g/ha
Summary of the method: as §1

southern crabgrass [10] = experiment: Test Example 5: herbicidal effect by foliage application, plastic box (Table 20, symbol F); format: in vivo, southern crabgrass (Digitaria ciliaris); details: amount of applied herbicide 320 g/ha; foliage application after 14-day growth; evaluated three weeks after application
Summary of the method: as §2

rice flat sedge = experiment: Test Example 3: herbicidal effect by foliage application, Wagner pot (Table 18, symbol E); format: in vivo, rice flat sedge (Cyperus iria); details: 320 g/ha
Summary of the method: as §3

lambsquarters [11] = experiment: Test Example 5: herbicidal effect by foliage application, plastic box (Table 20, symbol O); format: in vivo, lambsquarters (Chenopodium album); details: amount of applied herbicide 320 g/ha; foliage application after 14-day growth; evaluated three weeks after application
Summary of the method: as §2

redroot pigweed [12] = experiment: Test Example 4: herbicidal effect by soil treatment (Table 19, symbol N); format: in vivo, redroot pigweed (Amaranthus retroflexus); details: amount of applied herbicide 320 g/ha
Summary of the method: as §1

persian speedwell [13] = experiment: Test Example 5: herbicidal effect by foliage application, plastic box (Table 20, symbol R); format: in vivo, Persian speedwell (Veronica persica); details: amount of applied herbicide 320 g/ha; foliage application after 14-day growth; evaluated three weeks after application
Summary of the method: as §2

lambsquarters [14] = experiment: Test Example 4: herbicidal effect by soil treatment (Table 19, symbol O); format: in vivo, lambsquarters (Chenopodium album); details: amount of applied herbicide 320 g/ha
Summary of the method: as §1

barnyard grass [15] = experiment: Test Example 4: herbicidal effect by soil treatment (Table 19, symbol H); format: in vivo, barnyard grass (Echinochloa crus-galli); details: amount of applied herbicide 320 g/ha
Summary of the method: as §1

persian speedwell [16] = experiment: Test Example 4: herbicidal effect by soil treatment (Table 19, symbol R); format: in vivo, Persian speedwell (Veronica persica); details: amount of applied herbicide 320 g/ha
Summary of the method: as §1

velvetleaf [17] = experiment: Test Example 5: herbicidal effect by foliage application, plastic box (Table 20, symbol M); format: in vivo, velvetleaf (Abutilon theophrasti); details: amount of applied herbicide 320 g/ha; foliage application after 14-day growth; evaluated three weeks after application
Summary of the method: as §2

Chinese sprangletop = experiment: Test Example 3: herbicidal effect by foliage application, Wagner pot (Table 18, symbol D); format: in vivo, chinese sprangletop (Leptochloa chinensis); details: 320 g/ha
Summary of the method: as §3

wild oat [18] = experiment: Test Example 5: herbicidal effect by foliage application, plastic box (Table 20, symbol I); format: in vivo, wild oat (Avena fatua); details: amount of applied herbicide 320 g/ha; foliage application after 14-day growth; evaluated three weeks after application
Summary of the method: as §2

Italian ryegrass [19] = experiment: Test Example 5: herbicidal effect by foliage application, plastic box (Table 20, symbol K); format: in vivo, Italian ryegrass (Lolium multiflorum); details: amount of applied herbicide 320 g/ha; foliage application after 14-day growth; evaluated three weeks after application
Summary of the method: as §2

late watergrass = experiment: Test Example 1: herbicidal activity, application before weed generation under submerged conditions (Table 16, symbol A); format: in vivo, late watergrass (Echinochloa oryzicola); details: amount of applied herbicide 320 g/ha
Summary of the method: as §4

southern crabgrass [20] = experiment: Test Example 4: herbicidal effect by soil treatment (Table 19, symbol F); format: in vivo, southern crabgrass (Digitaria ciliaris); details: amount of applied herbicide 320 g/ha
Summary of the method: as §1

velvetleaf [21] = experiment: Test Example 4: herbicidal effect by soil treatment (Table 19, symbol M); format: in vivo, velvetleaf (Abutilon theophrasti); details: amount of applied herbicide 320 g/ha
Summary of the method: as §1

chickweed [22] = experiment: Test Example 5: herbicidal effect by foliage application, plastic box (Table 20, symbol P); format: in vivo, common chickweed (Stellaria media); details: amount of applied herbicide 320 g/ha; foliage application after 14-day growth; evaluated three weeks after application
Summary of the method: as §2

Japanese bulrush = experiment: Test Example 1: herbicidal activity, application before weed generation under submerged conditions (Table 16, symbol B); format: in vivo, Japanese bulrush (Schoenoplectus juncoides); details: amount of applied herbicide 320 g/ha
Summary of the method: as §4

barnyard grass [23] = experiment: Test Example 5: herbicidal effect by foliage application, plastic box (Table 20, symbol H); format: in vivo, barnyard grass (Echinochloa crus-galli); details: amount of applied herbicide 320 g/ha; foliage application after 14-day growth; evaluated three weeks after application
Summary of the method: as §2

redroot pigweed [24] = experiment: Test Example 5: herbicidal effect by foliage application, plastic box (Table 20, symbol N); format: in vivo, redroot pigweed (Amaranthus retroflexus); details: amount of applied herbicide 320 g/ha; foliage application after 14-day growth; evaluated three weeks after application
Summary of the method: as §2

green foxtail [25] = experiment: Test Example 5: herbicidal effect by foliage application, plastic box (Table 20, symbol G); format: in vivo, green foxtail (Setaria viridis); details: amount of applied herbicide 320 g/ha; foliage application after 14-day growth; evaluated three weeks after application
Summary of the method: as §2

Structure (SMILES)	Herbicidal effect by soil treatment, K: Italian ryegrass (Italian ryegrass [1])	Herbicidal effect by foliage application, J: blackgrass (blackgrass [2])	herbicidal effect on barnyard grass (H) (barnyard grass [3])	Herbicidal effect by soil treatment, L: windgrass (windgrass [4])	Herbicidal effect by soil treatment, J: blackgrass (blackgrass [5])	Herbicidal effect by soil treatment, G: green foxtail (green foxtail [6])	Herbicidal effect, C: oval-leafed pondweed (oval-leafed pondweed)	Herbicidal effect by foliage application, L: windgrass (windgrass [7])	Herbicidal effect by soil treatment, I: wild oat (wild oat [8])	Herbicidal effect by soil treatment, P: chickweed (chickweed [9])	Herbicidal effect by foliage application, F: southern crabgrass (southern crabgrass [10])	herbicidal effect on rice flat sedge (E) (rice flat sedge)	Herbicidal effect by foliage application, O: lambsquarters (lambsquarters [11])	Herbicidal effect by soil treatment, N: redroot pigweed (redroot pigweed [12])	Herbicidal effect by foliage application, R: persian speedwell (persian speedwell [13])	Herbicidal effect by soil treatment, O: lambsquarters (lambsquarters [14])	Herbicidal effect by soil treatment, H: barnyard grass (barnyard grass [15])	Herbicidal effect by soil treatment, R: persian speedwell (persian speedwell [16])	Herbicidal effect by foliage application, M: velvetleaf (velvetleaf [17])	herbicidal effect on Chinese sprangletop (D) (Chinese sprangletop)	further results
CCCC(=O)Oc1c(C)nn(C)c(=O)c1-c1c(-c2ccccc2OC(F)(F)F)sc2c(Cl)cccc12 [4-077]	0 (Herbicidal rate of 5% or less (almost no effect))	0 (Herbicidal rate of 5% or less (almost no effect))	5 (Herbicidal rate of 90% or more (almost completely withered))	0 (Herbicidal rate of 5% or less (almost no effect))	0 (Herbicidal rate of 5% or less (almost no effect))	0 (Herbicidal rate of 5% or less (almost no effect))	0 (Herbicidal rate of 5% or less (almost no effect))	0 (Herbicidal rate of 5% or less (almost no effect))	0 (Herbicidal rate of 5% or less (almost no effect))	0 (Herbicidal rate of 5% or less (almost no effect))	0 (Herbicidal rate of 5% or less (almost no effect))	5 (Herbicidal rate of 90% or more (almost completely withered))	4 (Herbicidal rate of 70% or more and less than 90%)	3 (Herbicidal rate of 40% or more and less than 70%)	5 (Herbicidal rate of 90% or more (almost completely withered))	0 (Herbicidal rate of 5% or less (almost no effect))	0 (Herbicidal rate of 5% or less (almost no effect))	3 (Herbicidal rate of 40% or more and less than 70%)	5 (Herbicidal rate of 90% or more (almost completely withered))	4 (Herbicidal rate of 70% or more and less than 90%)	Herbicidal effect by foliage application, I: wild oat (wild oat [18]): 0 (Herbicidal rate of 5% or less (almost no effect)); Herbicidal effect by foliage application, K: Italian ryegrass (Italian ryegrass [19]): 3 (Herbicidal rate of 40% or more and less than 70%); Herbicidal effect, A: late watergrass (late watergrass): 3 (Herbicidal rate of 40% or more and less than 70%); Herbicidal effect by soil treatment, F: southern crabgrass (southern crabgrass [20]): 0 (Herbicidal rate of 5% or less (almost no effect)); Herbicidal effect by soil treatment, M: velvetleaf (velvetleaf [21]): 0 (Herbicidal rate of 5% or less (almost no effect)); Herbicidal effect by foliage application, P: chickweed (chickweed [22]): 5 (Herbicidal rate of 90% or more (almost completely withered)); Herbicidal effect, B: Japanese bulrush (Japanese bulrush): 0 (Herbicidal rate of 5% or less (almost no effect)); Herbicidal effect by foliage application, H: barnyard grass (barnyard grass [23]): 3 (Herbicidal rate of 40% or more and less than 70%); Herbicidal effect by foliage application, N: redroot pigweed (redroot pigweed [24]): 5 (Herbicidal rate of 90% or more (almost completely withered)); Herbicidal effect by foliage application, G: green foxtail (green foxtail [25]): 3 (Herbicidal rate of 40% or more and less than 70%)
CCOc1ccccc1-c1sc2c(C)cccc2c1-c1c(O)c(C)nn(C)c1=O [4-112]	3 (Herbicidal rate of 40% or more and less than 70%)	5 (Herbicidal rate of 90% or more (almost completely withered))	5 (Herbicidal rate of 90% or more (almost completely withered))	4 (Herbicidal rate of 70% or more and less than 90%)	2 (Herbicidal rate of 20% or more and less than 40%)	4 (Herbicidal rate of 70% or more and less than 90%)	0 (Herbicidal rate of 5% or less (almost no effect))	5 (Herbicidal rate of 90% or more (almost completely withered))	0 (Herbicidal rate of 5% or less (almost no effect))	3 (Herbicidal rate of 40% or more and less than 70%)	4 (Herbicidal rate of 70% or more and less than 90%)	5 (Herbicidal rate of 90% or more (almost completely withered))	5 (Herbicidal rate of 90% or more (almost completely withered))	4 (Herbicidal rate of 70% or more and less than 90%)	5 (Herbicidal rate of 90% or more (almost completely withered))	3 (Herbicidal rate of 40% or more and less than 70%)	3 (Herbicidal rate of 40% or more and less than 70%)	5 (Herbicidal rate of 90% or more (almost completely withered))	5 (Herbicidal rate of 90% or more (almost completely withered))	4 (Herbicidal rate of 70% or more and less than 90%)	Herbicidal effect by foliage application, I: wild oat (wild oat [18]): 4 (Herbicidal rate of 70% or more and less than 90%); Herbicidal effect by foliage application, K: Italian ryegrass (Italian ryegrass [19]): 4 (Herbicidal rate of 70% or more and less than 90%); Herbicidal effect, A: late watergrass (late watergrass): 3 (Herbicidal rate of 40% or more and less than 70%); Herbicidal effect by soil treatment, F: southern crabgrass (southern crabgrass [20]): 3 (Herbicidal rate of 40% or more and less than 70%); Herbicidal effect by soil treatment, M: velvetleaf (velvetleaf [21]): 3 (Herbicidal rate of 40% or more and less than 70%); Herbicidal effect by foliage application, P: chickweed (chickweed [22]): 5 (Herbicidal rate of 90% or more (almost completely withered)); Herbicidal effect, B: Japanese bulrush (Japanese bulrush): 3 (Herbicidal rate of 40% or more and less than 70%); Herbicidal effect by foliage application, H: barnyard grass (barnyard grass [23]): 4 (Herbicidal rate of 70% or more and less than 90%); Herbicidal effect by foliage application, N: redroot pigweed (redroot pigweed [24]): 5 (Herbicidal rate of 90% or more (almost completely withered)); Herbicidal effect by foliage application, G: green foxtail (green foxtail [25]): 5 (Herbicidal rate of 90% or more (almost completely withered))
